These results are taken from patent publication US20090247475A1, “METHODS AND COMPOSITIONS RELATING TO PHARMACOGENETICS OF DIFFERENT GENE VARIANTS IN THE CONTEXT OF IRINOTECAN-BASED THERAPIES” (The Regents of the University of California, priority 2004, published 2009).

Positions count from the first letter of the chain named. Where two headings read alike, the source gives them in different places.

The nature of data set [1]: Irinotecan pharmacokinetics (AUC, noncompartmental analysis) in cancer patients stratified by genotype.
Excerpt: (§1) Sixty-four adults (48 Caucasians, 10 African-Americans, 4 Hispanics, and 2 others) with refractory solid tumors took part in the pharmacogenetic study.
(§2) After visual inspection of the graphical plots of AUC and ratios stratified by genotype, t test analysis was applied to the data showing the possible presence of an inter-genotype difference in irinotecan pharmacokinetics.
(§3) Two SNPs in SLCO1B1 [*1b (388A>G) and *5 (521T>C)] were also genotyped.
In a further data set the target is T1, OATP1B1 (Homo sapiens, UniProt Q9Y6L6).
T1 sequence (Q9Y6L6 1-691): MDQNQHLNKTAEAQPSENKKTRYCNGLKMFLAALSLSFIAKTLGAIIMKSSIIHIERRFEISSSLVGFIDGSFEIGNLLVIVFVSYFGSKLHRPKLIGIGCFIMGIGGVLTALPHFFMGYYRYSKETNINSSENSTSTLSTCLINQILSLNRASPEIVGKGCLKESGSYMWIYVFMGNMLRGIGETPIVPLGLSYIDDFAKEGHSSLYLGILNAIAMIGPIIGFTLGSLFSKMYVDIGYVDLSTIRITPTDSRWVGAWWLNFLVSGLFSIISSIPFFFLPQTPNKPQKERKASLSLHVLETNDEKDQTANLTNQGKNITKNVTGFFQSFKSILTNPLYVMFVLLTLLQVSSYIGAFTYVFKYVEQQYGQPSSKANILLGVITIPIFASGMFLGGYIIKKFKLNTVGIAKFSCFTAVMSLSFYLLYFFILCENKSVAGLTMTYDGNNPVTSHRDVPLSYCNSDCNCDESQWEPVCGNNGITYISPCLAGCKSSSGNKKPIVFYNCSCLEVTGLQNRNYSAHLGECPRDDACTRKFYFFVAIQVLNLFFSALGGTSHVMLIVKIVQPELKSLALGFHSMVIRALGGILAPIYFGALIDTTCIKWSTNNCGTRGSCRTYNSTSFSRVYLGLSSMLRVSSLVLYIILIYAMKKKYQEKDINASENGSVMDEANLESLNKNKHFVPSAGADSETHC
Conditions: cited from earlier work.

For data set [2] the following is noted: human, in vivo.
Excerpt: as §1, §2, §3
The conditions of data set [3]: early single agent trials; fraction of patients; cited from earlier work.
The target of data set [4] is T2, SLCO1B1*15 (N130D and V174A) (Homo sapiens, UniProt Q9Y6L6, N130D/V174A).
T2 sequence (Q9Y6L6 1-691 N130D/V174A): T1 sequence (Q9Y6L6 1-691) with N130D, V174A
Conditions: among the variants examined; cited from earlier work.

For data set [5] the following is noted: cited from earlier work.
[6] abbreviates: OATP1B1*1a and three common variants.

Take `CCc1c2c(nc3ccc(OC(=O)N4CCC(N5CCCCC5)CC4)cc13)-c1cc3c(c(=O)n1C2)COC(=O)[C@]3(O)CC` [irinotecan, Irinotecan]: in data set [1] (human, in vivo), the “Effect of SLCO1B1*1b allele on plasma disposition” value is “no effect”. Besides, the “Transport by OATP1B1” value on OATP1B1 (setting [6]) is recorded as “not transported”. In addition, in data set [2], the “Effect of SLCO1B1*5 variant on patient exposure (AUC)” value was “increase in irinotecan AUC”. For the same molecule, in data set [3], the “Frequency of grade 3-4 diarrhea” value was “about one third”.

For the molecule `CCc1c2c(nc3ccc(O)cc13)-c1cc3c(c(=O)n1C2)COC(=O)[C@]3(O)CC` [SN-38, 7-ethyl-10-hydroxycamptothecin], the “Transport activity of SLCO1B1*15 variant” value in data set [4] is “decreased transport activities”. In data set [1] (350 mg/m^2 IV irinotecan, SN-38 and SN-38G analysed in 6/6 and 6/7 UGT1A1 genotype patients), the “AUC in ABCC2 3972 TT patients compared to CT and CC patients” value is reported as “No significant correlation”. Also, on OATP1B1 (setting [6]), the “Transport by OATP1B1” value was “transport activity for SN-38 was observed”. The “Inhibition of SLCO1B1-mediated uptake of [(3)H]estrone-3-sulfate” value on OATP1B1 was “significant inhibitory effect”.

For `CCc1c2c(nc3ccc(O[C@@H]4O[C@H](C(=O)O)[C@@H](O)[C@H](O)[C@H]4O)cc13)-c1cc3c(c(=O)n1C2)COC(=O)[C@]3(O)CC` [SN-38G, 10O-glucuronyl-SN-38], on OATP1B1, the “Transport by OATP1B1” value is “not transported”. The “Effect of SLCO1B1*5 variant on patient exposure (AUC)” value in data set [2] is reported as “not affected”.

In the case of `CC[C@H](C)C(=O)O[C@H]1C[C@H](O)C=C2C=C[C@H](C)[C@H](CC[C@@H](O)C[C@@H](O)CC(=O)O)[C@H]21` [pravastatin], the “Transport activity of SLCO1B1*15 variant” value in data set [4] is “decreased transport activities”. In addition, the “Mean pravastatin AUC0-12 higher compared to non-carriers” value in data set [5] (heterozygous carriers of *15B) is listed as 93%; in data set [5] (heterozygous carriers of *17) it was 130%. Further, the “Mean pravastatin AUC0-12 higher compared to reference genotype” value in data set [5] (subjects with SLCO1B1 -11187GA genotype) is recorded as 98%.

Consider `C[C@]12CC[C@@H]3c4ccc(OS(=O)(=O)O)cc4CC[C@H]3[C@@H]1CCC2=O` [estrone-3-sulfate], for which the “Transport activity of SLCO1B1*15 variant” value in data set [4] is “decreased transport activities”.
